{"source": "patent US8158389B2", "about": "“Products and methods for in vivo secretion of monatin” (priority 2005, dated 2012)", "key": {"AcrAB efflux system": {"biological_target": "T1, AcrAB efflux system (Escherichia coli, UniProt P31224)", "T1 construct": "endogenous in cells; host or cells: E. coli BL21 (DE3) carrying aspC/proA on pET32", "T1 sequence (P31224 whole entry)": "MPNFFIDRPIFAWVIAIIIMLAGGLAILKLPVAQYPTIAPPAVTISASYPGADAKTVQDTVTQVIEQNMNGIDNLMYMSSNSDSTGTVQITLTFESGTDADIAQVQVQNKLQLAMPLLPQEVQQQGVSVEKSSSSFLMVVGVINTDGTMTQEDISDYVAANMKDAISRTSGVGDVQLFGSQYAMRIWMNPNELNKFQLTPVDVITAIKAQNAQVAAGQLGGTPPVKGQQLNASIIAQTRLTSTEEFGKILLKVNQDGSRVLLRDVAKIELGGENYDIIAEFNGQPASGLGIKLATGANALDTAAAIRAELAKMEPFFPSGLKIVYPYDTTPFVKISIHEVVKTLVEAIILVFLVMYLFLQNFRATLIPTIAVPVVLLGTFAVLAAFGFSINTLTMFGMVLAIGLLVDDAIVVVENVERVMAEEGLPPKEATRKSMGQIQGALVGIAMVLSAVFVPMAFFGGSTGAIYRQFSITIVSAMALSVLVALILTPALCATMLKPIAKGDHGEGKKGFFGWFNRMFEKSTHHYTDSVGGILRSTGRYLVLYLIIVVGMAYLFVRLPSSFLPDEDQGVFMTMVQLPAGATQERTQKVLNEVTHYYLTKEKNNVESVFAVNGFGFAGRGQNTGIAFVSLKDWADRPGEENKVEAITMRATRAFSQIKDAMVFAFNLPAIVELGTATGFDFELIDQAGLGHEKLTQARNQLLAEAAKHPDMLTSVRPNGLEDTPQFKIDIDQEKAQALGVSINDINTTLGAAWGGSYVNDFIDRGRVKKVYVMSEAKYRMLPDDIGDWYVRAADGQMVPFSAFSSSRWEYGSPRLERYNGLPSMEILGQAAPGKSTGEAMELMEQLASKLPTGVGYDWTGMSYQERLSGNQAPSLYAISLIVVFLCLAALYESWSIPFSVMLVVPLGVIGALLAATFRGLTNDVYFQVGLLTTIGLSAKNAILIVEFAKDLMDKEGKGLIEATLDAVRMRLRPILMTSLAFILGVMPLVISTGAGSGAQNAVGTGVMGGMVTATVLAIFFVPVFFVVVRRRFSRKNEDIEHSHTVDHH", "T1 sequence (P02930 23-493, further chain)": "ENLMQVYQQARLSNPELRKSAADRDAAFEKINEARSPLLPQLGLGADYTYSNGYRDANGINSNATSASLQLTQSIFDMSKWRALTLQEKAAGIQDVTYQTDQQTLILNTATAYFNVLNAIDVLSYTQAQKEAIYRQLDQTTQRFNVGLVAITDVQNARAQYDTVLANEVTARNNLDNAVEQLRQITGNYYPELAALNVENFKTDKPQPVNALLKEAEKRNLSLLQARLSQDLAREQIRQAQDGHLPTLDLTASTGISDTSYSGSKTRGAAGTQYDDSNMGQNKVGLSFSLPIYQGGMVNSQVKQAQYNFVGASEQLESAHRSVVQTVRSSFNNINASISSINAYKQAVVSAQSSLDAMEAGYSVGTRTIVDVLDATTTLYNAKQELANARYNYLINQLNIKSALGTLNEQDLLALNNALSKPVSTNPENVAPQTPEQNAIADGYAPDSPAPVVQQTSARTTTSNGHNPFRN", "T1 sequence (P0AE06 25-397, further chain)": "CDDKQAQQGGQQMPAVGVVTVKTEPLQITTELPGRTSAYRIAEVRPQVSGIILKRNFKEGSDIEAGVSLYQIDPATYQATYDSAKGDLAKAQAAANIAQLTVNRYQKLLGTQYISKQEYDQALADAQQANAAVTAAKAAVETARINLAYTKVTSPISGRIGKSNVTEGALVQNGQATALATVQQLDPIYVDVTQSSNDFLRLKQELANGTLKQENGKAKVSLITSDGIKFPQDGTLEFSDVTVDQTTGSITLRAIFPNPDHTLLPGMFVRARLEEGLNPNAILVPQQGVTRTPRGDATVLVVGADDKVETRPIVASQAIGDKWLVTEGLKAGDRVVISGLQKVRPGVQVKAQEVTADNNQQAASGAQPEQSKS", "assay": "Monatin efflux per dry cell weight after induction of the AcrAB efflux pump with sodium decanoate", "format": "cell-based", "procedure": "The microbial strain used for the experiment was E. coli BL21 (DE3) : : aspC/proA/pET32 (WO 03091396). The symbol : :, as is known in the art, stands for “transformed.” Example 12 provides a non-limiting exemplary method for transforming a microorganism. For an inoculum, the E. coli strains were grown overnight at 37° C. and 250 rpm in Luria-Bertani (“LB”) medium with 100 μg/mL ampicillin. For the experimental treatments, Trp-1+ glucose medium, a minimal medium that has been used for increased production of tryptophan in E. coli cells (Zeman et al. Folia Microbiol. 35:200-204, (1990)), was prepared as follows. To 800 mL nanopure water the following reagents were added: 2 g (NH4)2SO4 and 13.6 g KH2PO4. The pH was adjusted to 7.0, the volume was increased to 948 mL, and the medium was autoclaved. Following sterilization, 0.2 g MgSO4.7H2O, 0.01 g CaCl2.2H2O, and 0.5 mg FeSO4.7H2O were added to the medium in a 1.8 mL volume followed by addition of 0.2 mL of Neidhardt's micronutrient solution. Neidhardt, F. C., et al., “Culture medium for Enterobacteria,” J. Bacteriol. 119:736-746 (1974). Neidhardt's medium includes (per liter): 0.18 g (NH4)6(MO7)24.4H2O, 1.24 g H3BO3, 0.36 g CoCl2.6H2O, 0.12 g CuSO4 (anhydrous), 0.8 g MnCl2.4H2O, and 0.14 g ZnSO4.7H2O. A 50% glucose solution was prepared separately and sterile-filtered. Forty mL of glucose solution and 10 mL of 1 M 3-Morpholinopropanesulfonic acid (“MOPS”) buffer were added to the base medium (950 mL) for a 1 L final volume. […] Flasks were incubated at 37° C. with agitation at 250 rpm up to induction. […] 0.5 mM pyridoxine hydrochloride, and 0.2 mL of Balch's vitamins (Balch, W. E., et al., “Methanogens: reevaluation of a unique biological group,” Microbiol. Rev. 43:260-296, (1979)) were added at induction and the incubation temperature was lowered to 30° C. following induction. […] Some treatments included 2.5 mM sodium decanoate addition at 3.5 hours following induction. Samples for monatin analysis and dry cell weight determination were taken at 24 and 30 hours. Monatin analysis was done as described in Example 13.\nAnalyses of mixtures for monatin and tryptophan derived from in vitro or in vivo biochemical reactions were performed using a Waters/Micromass liquid chromatography-tandem mass spectrometry (“LC/MS/MS”) instrument including a Waters 2795 liquid chromatograph with a Waters 996 Photo-Diode Array (PDA) absorbance monitor placed in series between the chromatograph and a Micromass Quattro Ultima triple quadrupole mass spectrometer. LC separations were made using an Xterra MS C8 reversed-phase chromatography column, 2.1 mm×250 mm at 40° C. The LC mobile phase consisted of A) water containing 0.05% (v/v) trifluoroacetic acid and B) methanol containing 0.05% (v/v) trifluoroacetic acid.\nThe gradient elution was linear from 5% B to 35% B, 0-4 min, linear from 35% B to 60% B, 4-6.5 min, linear from 60% B to 90% B, 6.5-7 min, isocratic at 90% B 7-11 min, linear from 90% B to 95% B, 11-12 min, linear from 95% B to 5% B, 12-13 min, with a 5 min re-equilibration period between runs. The flow rate was 0.25 mL/min, and PDA absorbance was monitored from 200 nm to 400 nm. All parameters of the ESI-MS were optimized and selected based on generation of protonated molecular ions ([M+H]^+) of the analytes of interest, and production of characteristic fragment ions. […]"}, "E. coli BL21 DE3": {"tested_on": "E. coli BL21 DE3", "assay": "Preliminary study: novobiocin tolerance after sodium decanoate addition", "format": "cell-based, Escherichia coli", "conditions": "2.5 mM sodium decanoate added to the medium", "source_text": "This was taken as evidence that acrAB genes are induced with sodium decanoate addition and conferred resistance to novobiocin. Rosenberg, E. Y., et al., Molecular Microbiol. 48:1609-1619, (2003)."}, "[1]": {"tested_on": "E. coli MG1655::aspCproApProNde (control)", "assay": "AcrAB k.o. validation: growth (OD 600 nm) with novobiocin / sodium decanoate, control strain", "format": "cell-based, Escherichia coli", "conditions": "sodium decanoate 2.5 mM; novobiocin 0 ppm", "procedure": "Single chloramphenicol-resistant colonies were purified by restreaking on appropriate selective media and single colonies were tested by PCR as previously described for the BW25113 knockout strains, to verify the presence of the emrB and acrAB knockouts. The effects of the emrB and acrAB knockouts on the EmrAB and AcrAB transporter systems respectively were determined by assessing the phenotype of the transport mutants using appropriate antibiotics and comparison to wild type control microorganisms as shown in Table 3.1 and Table 3.2 below."}, "[2]": {"conditions": "2.5 mM Na decanoate, E. coli BL21 (DE3)::aspC/proA/pET32, single flasks"}}, "note": "“And” between values parts separate entries of the source, which are not always exact repeats. Equal values may be shown once.", "data": [{"smiles": "CCCCCCCCCC(=O)[O-].[Na+]", "note": "[sodium decanoate]", "values": [{"measurement": "Monatin/dcw at run hour 24", "setting": "AcrAB efflux system; [2]", "result": "14.7 mg monatin/g dcw and 12.0 mg monatin/g dcw and 17.0 mg monatin/g dcw"}, {"measurement": "Monatin/dcw at run hour 30", "setting": "AcrAB efflux system; [2]", "result": "14.3 mg monatin/g dcw and 13.8 mg monatin/g dcw and 17.4 mg monatin/g dcw"}, {"measurement": "Average monatin/dcw at run hour 24", "setting": "AcrAB efflux system; 2.5 mM Na decanoate, n = 3", "result": 14.6, "unit": "mg monatin/g dcw"}, {"measurement": "Average monatin/dcw at run hour 30", "setting": "AcrAB efflux system; 2.5 mM Na decanoate, n = 3", "result": 15.2, "unit": "mg monatin/g dcw"}, {"measurement": "increase in monatin secreted/dry cell weight", "setting": "AcrAB efflux system; 2.5 mM sodium decanoate vs no decanoate", "result": "Greater than nine fold increase"}, {"measurement": "tolerance to novobiocin", "setting": "E. coli BL21 DE3", "result": "80 to 160", "unit": "µg/mL"}, {"measurement": "OD 600 nm at 19 hours", "setting": "[1]", "result": 1.396}]}]}
